Assays:
[1] = target: T1, BK channel (large-conductance Ca2+-activated K+ channel, BKCa, KCa1.1) (Homo sapiens, UniProt Q12791); experiment: whole-cell patch clamp of endogenous BK current in LNCaP cells; current identity confirmed by si-hBK; format: cell-based
T1 construct: gene KCNMA1

[2] = target: T1, BK channel (large-conductance Ca2+-activated K+ channel, BKCa, KCa1.1); experiment: whole-cell patch clamp of T-type-activated BK current in LNCaP-α1H cells ([…] in LNCaP-NE cells); format: cell-based

T1 sequence (Q12791 whole entry): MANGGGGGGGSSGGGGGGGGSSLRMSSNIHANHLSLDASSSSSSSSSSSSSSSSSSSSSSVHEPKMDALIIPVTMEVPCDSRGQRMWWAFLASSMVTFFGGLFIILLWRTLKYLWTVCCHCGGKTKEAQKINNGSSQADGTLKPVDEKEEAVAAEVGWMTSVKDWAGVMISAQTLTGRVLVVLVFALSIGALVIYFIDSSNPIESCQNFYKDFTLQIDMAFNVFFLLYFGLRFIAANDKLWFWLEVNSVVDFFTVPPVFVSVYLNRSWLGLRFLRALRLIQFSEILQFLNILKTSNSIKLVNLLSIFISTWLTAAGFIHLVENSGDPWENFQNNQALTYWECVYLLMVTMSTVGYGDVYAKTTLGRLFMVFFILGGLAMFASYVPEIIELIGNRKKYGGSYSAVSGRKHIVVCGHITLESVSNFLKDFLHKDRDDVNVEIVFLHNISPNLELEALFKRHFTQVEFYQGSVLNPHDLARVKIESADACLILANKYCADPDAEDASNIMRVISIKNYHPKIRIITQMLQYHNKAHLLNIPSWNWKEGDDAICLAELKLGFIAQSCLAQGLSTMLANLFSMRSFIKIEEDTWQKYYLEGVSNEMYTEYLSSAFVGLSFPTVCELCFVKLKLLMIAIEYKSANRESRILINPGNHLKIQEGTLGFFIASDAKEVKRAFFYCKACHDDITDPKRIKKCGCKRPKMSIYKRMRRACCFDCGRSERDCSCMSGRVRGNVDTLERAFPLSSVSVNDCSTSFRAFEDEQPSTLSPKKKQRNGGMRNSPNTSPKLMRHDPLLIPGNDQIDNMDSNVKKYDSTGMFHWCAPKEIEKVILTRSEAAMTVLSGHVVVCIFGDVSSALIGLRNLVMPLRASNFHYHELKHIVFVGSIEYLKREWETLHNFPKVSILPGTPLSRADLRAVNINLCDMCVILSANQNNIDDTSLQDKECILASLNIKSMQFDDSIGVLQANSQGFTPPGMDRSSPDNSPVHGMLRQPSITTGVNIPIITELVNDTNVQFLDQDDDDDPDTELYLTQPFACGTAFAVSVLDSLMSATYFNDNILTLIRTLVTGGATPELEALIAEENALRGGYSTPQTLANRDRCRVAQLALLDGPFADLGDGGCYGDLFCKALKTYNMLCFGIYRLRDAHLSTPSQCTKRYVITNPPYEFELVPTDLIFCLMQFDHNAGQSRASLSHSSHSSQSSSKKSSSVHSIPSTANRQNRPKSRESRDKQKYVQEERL

CC(C)(O)[C@H]1O[C@H]2CC[C@@]3(C)[C@@](O)(CC[C@H]4Cc5c([nH]c6ccccc56)[C@@]43C)C2=CC1=O [Pax, paxillin] was tested, and the “whole-cell patch clamp of endogenous BK current in LNCaP cells; current identity” value [1] was 1 µM.

With CC[N+](CC)(CC)CC [TEA, tetraethyl ammonium] the IC50 [2] was 1140 ± 200 µM.
